Patent publication EP0603240B1, “SAFENING HERBICIDAL PYRAZOLYLSULFONYLUREAS” (priority 1991, dated 1993)

Tests used:
Assay type in all cases: in vivo
[1] = system: corn; test: Example 1, greenhouse Procedure II: antidotes against Herbicide No. 1
Method: (§1) Containers were filled and compacted with a fumigated silt loam top soil to a depth of about 1.3 cm from the top of the container. A first container was designated as an untreated control, a second container was designated as a herbicide control, and a third container was designated as a herbicide + antidote test container. Each of the containers was seeded with a crop species. A measured amount of herbicide dispersed or dissolved in acetone was applied to a measured quantity of soil. To this same quantity of soil treated with herbicide, there was added a measured amount of antidote dispersed or dissolved in acetone. The quantity of soil treated with the herbicide and antidote was thoroughly mixed to incorporate the herbicide and antidote in the soil uniformly. The seed bed in the third container of soil was covered with the soil treated with the herbicide and antidote and the container was leveled. For each test series, the seed beds of the first and second containers were likewise covered by soil layers. the cover layer of the first container was not treated with herbicide or antidote.
(§2) The containers were then placed on a bench in a greenhouse and sub-irrigated as required for the duration of the test. […] Plant response is measured in terms of percent injury. Antidote efficacy is indicated as the difference in plant injury by the herbicide(s) without the antidote and with the antidote.
(§3) This procedure is the same as Procedure I, but modified in the manner that after incorporation of the chemicals (herbicide and antidote) the containers with the covered seedbed were treated with an initial overhead irrigation equivalent to 0.6 cm rainfall, then subsequently sub-irrigated as required on greenhouse benches.
(§4) In the series of greenhouse tests described below, for routine screening purposes the herbicide/antidote compositions were tested in crop/weed combinations involving corn as the crop and either or both of the weeds barnyardgrass (Echinochloa crusgalli), a monocotyledonous weed, and velvetleaf (Abutilon theophrasti), a dicotyledonous weed. In the tables below, these weeds are indicated by the symbols "BYG" and "VL", respectively.
This example was designed to investigate the antidotal efficacy of a plurality of antidotes against Herbicide No. 1 in corn in the presence of barnyard grass and velvetleaf. The antidotes used in this example were Antidote Nos. 1-10, 12, 13 and 15.
The test in this example was conducted as described above for Procedure II. The antidotes were applied to the soil cover layer by pipet after spraying on the herbicide followed by incorporation and simulated rain.

[2] = system: corn; test: Example 3, Procedure I: antidotes against Herbicide No. 1
Method: as §1, §2
This example details the results of tests with Antidote Nos. 12, 15 and 16 to safen Herbicide No. 1 over application rates ranging from 4.48 kg/ha down to 0.56 kg/ha, in corn in the presence of barnyardgrass. Procedure I described above was used in these tests.

[3] = system: barnyardgrass (Echinochloa crusgalli); test: Example 4, Procedure I: Antidote Nos. 15 and 16 against Herbicide No. 1
Method: as §1, §2, §4
(§5) This example describes tests with Antidote Nos. 15 and 16 to safen Herbicide No. 1 according to Procedure I using corn and the weeds barnyardgrass and velvetleaf as the test plants.

[4] = system: velvetleaf (Abutilon theophrasti); test: as above
Method: as §1, §2, §4, §5

[5] = system: barnyardgrass (Echinochloa crusgalli); test: Example 5, Procedure I: Herbicide No. 1 + alachlor (No. 7) with Antidote Nos. 15 and 16
Method: as §1, §2, §4, §5
(§6) In the tests described in this example, the same procedure described in Example 4 was performed simultaneously therewith and under the same conditions, except that a co-herbicide, alachlor, was included in the same composition with Herbicide No. 1 and Antidote Nos. 15 and 16. Alachlor (Herbicide No. 7 herein) is the active ingredient in the commercial product LASSO® herbicide.

[6] = system: velvetleaf (Abutilon theophrasti); test: as above
Method: as §1, §2, §4, §5, §6

[7] = system: corn; test: Example 16, Procedure II: Herbicide No. 1 + EPTC (No. 4, EPTAM) with antidotes; conditions: Herbicide No.1 1.12 kg/ha + EPTAM 6.72 kg/ha; antidote 2.24 kg/ha
Method: as §1, §2, §3
The test procedure used in these experiments was that of Procedure II described above. The antidotes were applied to a soil cover layer by pipet after spraying the herbicides onto the soil, followed by incorporation and overhead irrigation. […]

[8] = Herb. No. 1 0.56 kg/ha + antidote 2.24 kg/ha
[9] = Herb. No. 1 4.48 kg/ha + antidote 0.56 kg/ha
[10] = Herb. No. 1 4.48 kg/ha + antidote 2.24 kg/ha
[11] = Herb. No. 1 6.72 kg/ha + antidote 0.56 kg/ha
[12] = Herb. No. 1 6.72 kg/ha + antidote 2.24 kg/ha
[13] = Herbicide No.1 4.48 + No.7 0.56 kg/ha + antidote 0.56 kg/ha
[14] = Herbicide No.1 4.48 + No.7 0.56 kg/ha + antidote 2.24 kg/ha
[15] = Herbicide No.1 4.48 + No.7 2.24 kg/ha + antidote 0.56 kg/ha
[16] = Herbicide No.1 4.48 + No.7 2.24 kg/ha + antidote 2.24 kg/ha
[17] = Herbicide No.1 6.72 + No.7 0.56 kg/ha + antidote 0.56 kg/ha
[18] = Herbicide No.1 6.72 + No.7 0.56 kg/ha + antidote 2.24 kg/ha
[19] = Herbicide No.1 6.72 + No.7 2.24 kg/ha + antidote 0.56 kg/ha
[20] = Herbicide No.1 6.72 + No.7 2.24 kg/ha + antidote 2.24 kg/ha
[21] = Herb. No. 1 4.48 kg/ha, no antidote, average of two replicates
[22] = Herb. No. 1 6.72 kg/ha, no antidote, average of two replicates
[23] = Herbicide No.1 4.48 + No.7 0.56 kg/ha, no antidote
[24] = Herbicide No.1 4.48 + No.7 2.24 kg/ha, no antidote
[25] = Herbicide No.1 6.72 + No.7 0.56 kg/ha, no antidote
[26] = Herbicide No.1 6.72 + No.7 (alachlor) 2.24 kg/ha, no antidote

CC1(C)OC(c2ccco2)CN1C(=O)C(Cl)Cl (stereo not drawn) [compound 15] was tested, and the “% Injury Corn” value ([1]; Herb. No. 1 0.14 kg/ha + antidote 2.24 kg/ha) was 5%, the “% Injury Corn” value [1, 8] was 5% and the “% Injury Corn” value ([2]; Herb. No. 1 0.56 kg/ha + antidote 0.56 kg/ha) was 0%. The “% Injury Corn” value [2, 8] was 0%, the “% Injury Corn” value ([2]; Herb. No. 1 0.56 kg/ha + antidote 8.96 kg/ha) was 0% and the “% Injury Corn” value ([2]; Herb. No. 1 1.12 kg/ha + antidote 0.56 kg/ha) was 0%. For the same compound, the “% Injury Corn” value ([2]; Herb. No. 1 1.12 kg/ha + antidote 2.24 kg/ha) was 0%, the “% Injury Corn” value ([2]; Herb. No. 1 1.12 kg/ha + antidote 8.96 kg/ha) was 0% and the “% Injury Corn” value ([2]; Herb. No. 1 2.24 kg/ha + antidote 0.56 kg/ha) was 15%. For the same compound, the “% Injury Corn” value ([2]; Herb. No. 1 2.24 kg/ha + antidote 2.24 kg/ha) was 0%, the “% Injury Corn” value ([2]; Herb. No. 1 2.24 kg/ha + antidote 8.96 kg/ha) was 0% and the “% Injury Corn” value [2, 9] was 0%. For the same compound, the “% Injury Corn” value [2, 10] was 5%, the “% Injury Corn” value ([2]; Herb. No. 1 4.48 kg/ha + antidote 8.96 kg/ha) was 0% and the “% Injury Corn” value ([2]; antidote 8.96 kg/ha alone, no herbicide) was 0%. The “% Injury BYG” value [3, 9] was 95%, the “% Injury BYG” value [3, 10] was 90% and the “% Injury BYG” value [3, 11] was 90%. The “% Injury BYG” value [3, 12] was 90%, the “% Injury VL” value [4, 9] was 95% and the “% Injury VL” value [4, 10] was 95%. The “% Injury VL” value [4, 11] was 95%, the “% Injury VL” value [4, 12] was 95% and the “% Injury BYG” value [5, 13] was 99%. The “% Injury BYG” value [5, 14] was 95%, the “% Injury BYG” value [5, 15] was 100% and the “% Injury BYG” value [5, 16] was 100%. The “% Injury BYG” value [5, 17] was 99%, the “% Injury BYG” value [5, 18] was 99% and the “% Injury BYG” value [5, 19] was 100%. The “% Injury BYG” value [5, 20] was 100%, the “% Injury VL” value [6, 13] was 95% and the “% Injury VL” value [6, 14] was 95%. The “% Injury VL” value [6, 15] was 98%, the “% Injury VL” value [6, 16] was 95% and the “% Injury VL” value [6, 17] was 95%. For the same compound, the “% Injury VL” value [6, 18] was 99%, the “% Injury VL” value [6, 19] was 99% and the “% Injury VL” value [6, 20] was 95%. The “% Injury Corn” value [7] was 5%.
For COC(=O)c1c(Cl)nn(C)c1S(=O)(=O)NC(=O)Nc1nc(OC)cc(OC)n1 [Herbicide No. 1], the “% Injury Corn” value ([1]; Herb. No. 1 0.14 kg/ha, no antidote) was 5%, the “% Injury Corn” value ([2]; Herb. No. 1 0.56 kg/ha, no antidote) was 7% and the “% Injury Corn” value ([2]; Herb. No. 1 1.12 kg/ha, no antidote) was 13%. The “% Injury Corn” value ([2]; Herb. No. 1 2.24 kg/ha, no antidote) was 38%, the “% Injury Corn” value ([2]; Herb. No. 1 4.48 kg/ha, no antidote) was 60% and the “% Injury BYG” value [3, 21] was 80%. The “% Injury BYG” value [3, 22] was 90%, the “% Injury VL” value [4, 21] was 90% and the “% Injury VL” value [4, 22] was 90%. For the same compound, the “% Injury BYG” value [5, 23] was 99%, the “% Injury BYG” value [5, 24] was 100% and the “% Injury BYG” value [5, 25] was 99%. For the same compound, the “% Injury BYG” value [5, 26] was 100%, the “% Injury VL” value [6, 23] was 98% and the “% Injury VL” value [6, 24] was 98%. For the same compound, the “% Injury VL” value [6, 25] was 98% and the “% Injury VL” value [6, 26] was 98%.
